Experimental data reported in US6787552B2, “PPAR delta activators” (Nippon Chemiphar Co., Ltd., priority 2000, dated 2004).

What was measured:
[1] = molecular target: T1, PPARδ (Homo sapiens, UniProt Q03181); assay: PPARδ transactivation activity (GAL4-hPPARδ LBD / UASx4-TK-LUC reporter in CV-1 cells); assay type: cell-based; conditions: for Emax: CV-1, 40 h, in the manner as described in Example 9, Table 26, read-out: PPARδ (PPAR activating power)
T1 construct: A chimeric receptor expression plasmid (GAL4-hPPARδ LBD); expressed in transfected cells; host or cells: CV-1 cells
T1 sequence (Q03181 211-439 limits assumed): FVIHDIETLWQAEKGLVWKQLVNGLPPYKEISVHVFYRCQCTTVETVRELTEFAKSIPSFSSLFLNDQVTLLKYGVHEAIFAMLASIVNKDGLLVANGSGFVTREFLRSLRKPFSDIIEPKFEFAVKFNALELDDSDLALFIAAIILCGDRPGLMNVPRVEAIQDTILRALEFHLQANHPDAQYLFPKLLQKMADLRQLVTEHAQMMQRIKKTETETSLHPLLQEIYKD
Experimental: A chimeric receptor expression plasmid (GAL4-hPPARδ LBD), a reporter plasmid (UASx4-TK-LUC) and β-galactosidase (β-GAL) are transfected into CV-1 cells by utilizing a lipofection reagent DMRIE-C (Life Technologies).
(§1) (1) Measurement of PPARα,γ,δ Transactivation Activity
CV-1 was obtained from Tohoku University Aging Medical Laboratory, Medical Cell Collection Center.
(§2) CV-1 cells were seeded in 24 well culture plates at 2×10^5 cells per well, and cultured for 24 hours using 4%-fetal bovine serum(FBS)-added OPTI-MEM I Reduced Serum Medium (Life Technologies, 500 μL/well). Subsequently, the cells were washed with non serum-added OPTI-MEM. To the washed cells were added DNA-containing solution [the following components were contained in the one well solution (250 μl): 0.03 μg of GAL4-hPPARδ LBD, 0.25 μg of UASx4-TK-LUC, 0.35 μg of βGAL, and 2 μL of lipofection reagent, DMRIE-C (Life Technologies). These components were dissolved in OPTI-MEM and allowed to stand for 30 minutes at room temperature]. The cells were incubated for 5 hours at 37° C.
(§3) The cells were then incubated for 40 hours in 500 μL of fresh OPTI-MEM containing 4% FBS and the test compound (dissolved in 100% DMSO to reach a final concentration: 10^−4M or 10^−5M).
(§4) The culture medium was removed and the cells were washed with PBS twice. Cell lysates were produced using a solubilizing buffer (25 mM Tris-PO4 (pH 7.8), 15%v/v glycerol, 2% CHAPS, 1% Lecithin, 1% BSA, 4 mM EGTA (pH 8.0), 8 mM MgCl2, 1 mM DTT). A portion (20 μL) of the solution was transferred onto a 96-well plate. Subsequently, 100 μL of luciferase substrate solution (Piccagene: available from Nippon Gene Co., Ltd.) was added, and a luminous intensity per one sec. (luciferase activity) was measured by means of MLR-100 type Microluminoreader (available from Corona Electrics Co., Ltd.). Further, the activity caused by […] incorporation which was incorporated into the cells simultaneously with the incorporation of the luciferase gene was measured, for correcting variation of luciferase activity by the addition of the compound, utilizing the transfection efficiency of the incorporated gene. β-Galactosidase activity was measured by the following method: 50 μL of the solubilized sample was placed on another 96-well plate; 10 μL of ONPG (2-nitrophenyl-β-galactopyranoside) solution was added; incubation was carried out for 5 minutes at room temperature; 50 μL of a reaction stopping solution (1M sodium carbonate solution) was added; and the absorbance at 414 nm was measured.

[2] = molecular target: T2, PPARα (Homo sapiens, UniProt Q07869); assay: PPARα transactivation activity (GAL4-hPPARα LBD / UASx4-TK-LUC reporter in CV-1 cells); assay type: cell-based; conditions: CV-1; in the manner as described in Example 9; Table 26; read-out: PPARα (PPAR activating power)
T2 construct: Receptor expression plasmid (GAL4-hPPARα, LBD GAL4-hPPARγ LBD, GAL4-hPPARδ LBD); expressed in transfected cells; host or cells: CV-1 cells
T2 sequence (Q07869 239-466 limits assumed): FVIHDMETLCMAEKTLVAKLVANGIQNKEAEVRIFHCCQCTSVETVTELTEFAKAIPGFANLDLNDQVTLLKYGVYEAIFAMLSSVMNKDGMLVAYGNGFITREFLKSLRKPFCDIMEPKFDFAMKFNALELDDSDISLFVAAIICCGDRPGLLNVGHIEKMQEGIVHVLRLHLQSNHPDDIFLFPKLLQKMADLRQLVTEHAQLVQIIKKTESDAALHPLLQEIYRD
Experimental: as §1
(§5) PPARα,γ,δ transactivation activity of each compound [Examples 1-6 and known PPARδ agonist (L-16504: Berger, J., et al. (1999), J. Biol. Chem., 274:6718-6725)] was measured in the manner described below.
(§6) CV-1 was obtained from Tohoku University Aging Medical Laboratory, Medical Cell Collection Center. All test compounds were dissolved in dimethylsulfoxide (DMSO) to give a test sample of 0.1% concentration.
(§7) Receptor expression plasmid (GAL4-hPPARα, LBD GAL4-hPPARγ LBD, GAL4-hPPARδ LBD), Reporter plasmid (UASx4-TK-LUC), and β-galactosidase expression plasmid (βGAL) similar to Kliewer, S. A., et al., ((1992) Nature, 358:771-774) were employed.
as §2, §3, §4

[3] = molecular target: T3, PPARγ (Homo sapiens, UniProt P37231); assay: PPARγ transactivation activity (GAL4-hPPARγ LBD / UASx4-TK-LUC reporter in CV-1 cells); assay type: cell-based; conditions: CV-1; in the manner as described in Example 9; Table 26; read-out: PPARγ (PPAR activating power)
T3 construct: Receptor expression plasmid (GAL4-hPPARα, LBD GAL4-hPPARγ LBD, GAL4-hPPARδ LBD); expressed in transfected cells; host or cells: CV-1 cells
T3 sequence (P37231 238-503 limits assumed): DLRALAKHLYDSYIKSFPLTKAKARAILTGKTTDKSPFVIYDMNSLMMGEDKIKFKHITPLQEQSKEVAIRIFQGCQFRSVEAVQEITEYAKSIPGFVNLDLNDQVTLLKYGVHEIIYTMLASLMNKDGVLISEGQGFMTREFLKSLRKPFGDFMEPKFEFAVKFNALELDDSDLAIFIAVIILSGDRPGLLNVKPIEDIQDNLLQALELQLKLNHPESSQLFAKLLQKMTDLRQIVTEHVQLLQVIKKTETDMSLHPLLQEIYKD
Experimental: In the same manner, relative ligand activities to PPARδ and γ transactivation activitis are calculated (see the below-mentioned Example 9).
as §1, §5, §6, §7, §2, §3, §4

| SMILES | Emax [1] | activity to PPARδ relative to activity to PPARα and γ (selectivity) ([1]; CV-1 cells, GAL4-hPPAR LBD reporter, relative activities vs control reagents) | melting point | Emax [2] | Emax [3] |
| --- | --- | --- | --- | --- | --- |
| CC(C)c1oc(-c2ccc(Cl)cc2Cl)nc1CCC(=O)c1ccc(OC(C)(C)C(=O)O)cc1 [Example 7-4, 2-[4-[3-[2-(2,4-Dichlorophenyl)-5-isopropyl-4-oxazolyl]propionyl]phenyloxy]-2-methylpropionic acid] | 86 ± 10% | higher | 100 to 105 °C | 1% | 2% |
| CC(C)c1oc(-c2cc3ccccc3o2)nc1CCC(=O)c1ccc(OC(C)(C)C(=O)O)cc1 [Example 7-7, 2-[4-[3-[2-(2-Benzofuranyl)-5-isopropyl-4-oxazolyl]propionyl]phenyloxy]-2-methylpropionic acid] | 65 ± 2% |  | 135 to 139 °C | 1% | 9% |
| CC(C)c1oc(-c2ccc(Cl)cc2Cl)nc1CC=Cc1ccc(OC(C)(C)C(=O)O)cc1 [Example 7-10, 2-[4-[3-[2-(2,4-Dichlorophenyl)-5-isopropyl-4-oxazolyl]-1-propenyl]phenyloxy]-2-methylpropionic acid] | 70% |  |  | 3% | 1% |
| CC(C)c1oc(-c2ccc(Cl)cc2Cl)nc1CCC(=O)c1cccc(OC(C)(C)C(=O)O)c1 [Example 8-2, 2-[3-[3-[2-(2,4-Dichlorophenyl)-5-isopropyl-4-oxazolyl]propionyl]phenyloxy)-2-methylpropionic acid] |  |  | 115 to 120 °C |  |  |
